Source: the kinase profiling compilation of Christmann-Franck et al. (2016)
One block for each compound: values may come before it.

Experiments:
Experiment in all cases: radiometric filter-binding kinase assay, Kinase HotSpot
Details in all cases: compound 0.5 µM; ATP 10 µM
RAF1 (human) = RAF1 (human) (UniProt P04049)
FGFR4 (human) = FGFR4 (human) (UniProt P22455)
NUAK1 (human) = NUAK1 (human) (UniProt O60285)
EPHA1 (human) = EPHA1 (human) (UniProt P21709)
WEE1 (human) = WEE1 (human) (UniProt P30291)
EPHB3 (human) = EPHB3 (human) (UniProt P54753)
ITK (human) = ITK (human) (UniProt Q08881)
MAP3K5 (human) = MAP3K5 (human) (UniProt Q99683)
CSF1R (human) = CSF1R (human) (UniProt P07333)
NEK7 (human) = NEK7 (human) (UniProt Q8TDX7)
MUSK (human) = MUSK (human) (UniProt O15146)
PNCK (human) = PNCK (human) (UniProt Q6P2M8)
MAP4K4 (human) = MAP4K4 (human) (UniProt O95819)
CAMK2A (human) = CAMK2A (human) (UniProt Q9UQM7)
BTK (human) = BTK (human) (UniProt Q06187)
CSNK1G1 (human) = CSNK1G1 (human) (UniProt Q9HCP0)
STK33 (human) = STK33 (human) (UniProt Q9BYT3)
PRKACA (human) = PRKACA (human) (UniProt P17612)
PBK (human) = PBK (human) (UniProt Q96KB5)
MERTK (human) = MERTK (human) (UniProt Q12866)
Sequence of MERTK (human) (Q12866 whole entry, looked up): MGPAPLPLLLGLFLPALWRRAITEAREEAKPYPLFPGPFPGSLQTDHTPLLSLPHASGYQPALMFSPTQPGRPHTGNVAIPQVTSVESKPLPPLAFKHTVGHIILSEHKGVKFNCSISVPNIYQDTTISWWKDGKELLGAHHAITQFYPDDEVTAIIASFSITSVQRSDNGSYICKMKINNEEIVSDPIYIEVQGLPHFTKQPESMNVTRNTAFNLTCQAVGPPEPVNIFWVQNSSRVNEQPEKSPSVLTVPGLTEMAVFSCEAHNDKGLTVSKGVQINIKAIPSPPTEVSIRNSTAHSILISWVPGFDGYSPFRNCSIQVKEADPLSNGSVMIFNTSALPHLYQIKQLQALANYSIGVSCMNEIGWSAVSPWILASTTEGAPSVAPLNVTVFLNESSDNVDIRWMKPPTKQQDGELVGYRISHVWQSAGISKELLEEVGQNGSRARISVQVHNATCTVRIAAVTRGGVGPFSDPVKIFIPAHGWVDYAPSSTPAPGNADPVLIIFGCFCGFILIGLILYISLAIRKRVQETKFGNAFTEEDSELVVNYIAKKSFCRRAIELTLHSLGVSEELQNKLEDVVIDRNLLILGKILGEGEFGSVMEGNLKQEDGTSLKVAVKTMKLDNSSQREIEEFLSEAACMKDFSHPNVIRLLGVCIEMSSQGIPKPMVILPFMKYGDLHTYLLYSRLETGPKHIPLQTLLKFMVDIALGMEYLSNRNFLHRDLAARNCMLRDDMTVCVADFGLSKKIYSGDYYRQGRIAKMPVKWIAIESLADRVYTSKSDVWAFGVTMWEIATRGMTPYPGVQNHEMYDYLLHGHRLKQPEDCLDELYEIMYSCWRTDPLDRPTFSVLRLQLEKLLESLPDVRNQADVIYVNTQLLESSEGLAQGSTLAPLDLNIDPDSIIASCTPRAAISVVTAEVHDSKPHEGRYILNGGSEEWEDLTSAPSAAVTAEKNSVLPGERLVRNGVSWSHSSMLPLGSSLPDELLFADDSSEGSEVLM

CSNK1G2 (human) = CSNK1G2 (human) (UniProt P78368)
EPHA8 (human) = EPHA8 (human) (UniProt P29322)
Sequence of EPHA8 (human) (P29322 whole entry, looked up): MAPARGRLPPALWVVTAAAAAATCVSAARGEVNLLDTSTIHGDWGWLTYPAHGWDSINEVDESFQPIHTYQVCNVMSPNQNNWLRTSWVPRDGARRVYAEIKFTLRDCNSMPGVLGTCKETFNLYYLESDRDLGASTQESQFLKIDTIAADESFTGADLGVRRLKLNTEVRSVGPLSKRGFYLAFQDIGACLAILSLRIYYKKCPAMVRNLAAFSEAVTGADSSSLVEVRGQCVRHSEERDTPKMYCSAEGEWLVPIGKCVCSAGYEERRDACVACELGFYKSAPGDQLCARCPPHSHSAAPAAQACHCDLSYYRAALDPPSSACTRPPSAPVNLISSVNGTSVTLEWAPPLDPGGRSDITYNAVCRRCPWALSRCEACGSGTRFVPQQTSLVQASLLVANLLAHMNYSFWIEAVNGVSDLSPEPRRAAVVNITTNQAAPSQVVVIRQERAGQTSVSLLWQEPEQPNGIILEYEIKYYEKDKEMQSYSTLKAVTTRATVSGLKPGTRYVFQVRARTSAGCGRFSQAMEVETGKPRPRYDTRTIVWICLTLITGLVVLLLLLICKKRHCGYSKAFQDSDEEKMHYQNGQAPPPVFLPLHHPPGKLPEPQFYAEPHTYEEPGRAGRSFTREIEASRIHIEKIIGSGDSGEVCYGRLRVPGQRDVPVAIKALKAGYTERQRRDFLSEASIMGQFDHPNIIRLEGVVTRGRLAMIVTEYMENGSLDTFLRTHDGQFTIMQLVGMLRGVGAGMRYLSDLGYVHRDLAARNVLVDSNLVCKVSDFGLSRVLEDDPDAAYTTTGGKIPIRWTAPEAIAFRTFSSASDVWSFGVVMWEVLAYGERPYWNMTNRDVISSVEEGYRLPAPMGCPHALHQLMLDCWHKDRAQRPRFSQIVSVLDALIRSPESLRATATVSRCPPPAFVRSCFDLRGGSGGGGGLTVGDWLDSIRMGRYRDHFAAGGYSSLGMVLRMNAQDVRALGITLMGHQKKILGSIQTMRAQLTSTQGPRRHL

FGFR3 (human) = FGFR3 (human) (UniProt P22607)
OXSR1 (human) = OXSR1 (human) (UniProt O95747)
DYRK1A (human) = DYRK1A (human) (UniProt Q13627)
HIPK1 (human) = HIPK1 (human) (UniProt Q86Z02)
MINK1 (human) = MINK1 (human) (UniProt Q8N4C8)
PIM1 (human) = PIM1 (human) (UniProt P11309)
PLK3 (human) = PLK3 (human) (UniProt Q9H4B4)
SRMS (human) = SRMS (human) (UniProt Q9H3Y6)
STK25 (human) = STK25 (human) (UniProt O00506)
Sequence of STK25 (human) (O00506 whole entry, looked up): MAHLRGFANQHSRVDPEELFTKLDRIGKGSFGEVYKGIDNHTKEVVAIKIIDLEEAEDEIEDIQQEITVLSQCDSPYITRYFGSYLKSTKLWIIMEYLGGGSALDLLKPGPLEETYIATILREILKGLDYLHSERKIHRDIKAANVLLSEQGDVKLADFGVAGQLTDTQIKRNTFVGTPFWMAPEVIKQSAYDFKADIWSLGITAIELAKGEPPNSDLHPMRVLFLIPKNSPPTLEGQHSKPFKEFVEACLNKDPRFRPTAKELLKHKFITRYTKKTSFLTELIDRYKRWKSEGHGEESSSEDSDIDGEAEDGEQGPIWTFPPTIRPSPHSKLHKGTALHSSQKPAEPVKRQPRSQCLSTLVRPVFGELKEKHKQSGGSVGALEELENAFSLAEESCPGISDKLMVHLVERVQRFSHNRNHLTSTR

DMPK (human) = DMPK (human) (UniProt Q09013)
DYRK3 (human) = DYRK3 (human) (UniProt O43781)
NEK3 (human) = NEK3 (human) (UniProt P51956)
CAMK2G (human) = CAMK2G (human) (UniProt Q13555)
PIM3 (human) = PIM3 (human) (UniProt Q86V86)
GSK3B (human) = GSK3B (human) (UniProt P49841)
Sequence of GSK3B (human) (P49841 whole entry, looked up): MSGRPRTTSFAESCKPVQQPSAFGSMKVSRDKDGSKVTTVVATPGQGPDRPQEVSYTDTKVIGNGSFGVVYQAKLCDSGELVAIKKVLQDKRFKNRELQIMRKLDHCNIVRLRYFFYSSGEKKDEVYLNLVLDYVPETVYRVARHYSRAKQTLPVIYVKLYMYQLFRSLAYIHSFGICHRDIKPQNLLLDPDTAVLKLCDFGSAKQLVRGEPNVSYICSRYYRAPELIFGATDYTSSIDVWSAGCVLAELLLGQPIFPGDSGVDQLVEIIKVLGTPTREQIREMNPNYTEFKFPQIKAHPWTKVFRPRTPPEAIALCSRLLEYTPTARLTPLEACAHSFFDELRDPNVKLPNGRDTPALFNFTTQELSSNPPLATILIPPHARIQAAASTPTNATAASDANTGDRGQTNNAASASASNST

JAK3 JH1 JH2 (human) = JAK3 JH1 JH2 (human) (UniProt P52333)
MYLK2 (human) = MYLK2 (human) (UniProt Q9H1R3)
ULK1 (human) = ULK1 (human) (UniProt O75385)
Sequence of ULK1 (human) (O75385 whole entry, looked up): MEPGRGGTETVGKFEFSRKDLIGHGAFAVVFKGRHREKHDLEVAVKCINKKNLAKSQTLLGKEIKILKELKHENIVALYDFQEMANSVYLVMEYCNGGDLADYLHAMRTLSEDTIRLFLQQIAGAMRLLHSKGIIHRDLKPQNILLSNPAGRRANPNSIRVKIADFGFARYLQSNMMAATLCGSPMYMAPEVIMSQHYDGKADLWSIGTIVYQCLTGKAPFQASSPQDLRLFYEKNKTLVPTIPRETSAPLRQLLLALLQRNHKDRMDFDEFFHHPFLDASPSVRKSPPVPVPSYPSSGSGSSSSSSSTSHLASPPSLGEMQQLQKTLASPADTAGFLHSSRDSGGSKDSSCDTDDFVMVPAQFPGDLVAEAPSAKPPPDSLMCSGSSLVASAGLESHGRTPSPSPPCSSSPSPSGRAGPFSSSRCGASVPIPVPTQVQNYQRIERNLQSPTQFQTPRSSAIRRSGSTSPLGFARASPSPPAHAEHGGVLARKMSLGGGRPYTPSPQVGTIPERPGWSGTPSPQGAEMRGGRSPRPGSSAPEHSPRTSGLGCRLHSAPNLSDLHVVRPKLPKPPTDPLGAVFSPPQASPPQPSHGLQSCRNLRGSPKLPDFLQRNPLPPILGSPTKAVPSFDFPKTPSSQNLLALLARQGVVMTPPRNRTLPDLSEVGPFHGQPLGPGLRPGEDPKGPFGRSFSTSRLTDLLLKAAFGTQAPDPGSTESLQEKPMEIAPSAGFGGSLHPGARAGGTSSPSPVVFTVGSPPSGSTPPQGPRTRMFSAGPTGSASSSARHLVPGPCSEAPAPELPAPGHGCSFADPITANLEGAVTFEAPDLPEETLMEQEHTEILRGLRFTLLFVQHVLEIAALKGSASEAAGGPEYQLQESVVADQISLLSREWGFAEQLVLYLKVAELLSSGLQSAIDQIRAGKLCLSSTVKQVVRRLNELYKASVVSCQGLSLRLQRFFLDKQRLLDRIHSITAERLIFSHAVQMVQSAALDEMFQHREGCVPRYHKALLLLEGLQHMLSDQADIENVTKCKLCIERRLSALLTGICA

MARK3 (human) = MARK3 (human) (UniProt P27448)

Sequence of NUAK1 (human) (O60285 whole entry, looked up): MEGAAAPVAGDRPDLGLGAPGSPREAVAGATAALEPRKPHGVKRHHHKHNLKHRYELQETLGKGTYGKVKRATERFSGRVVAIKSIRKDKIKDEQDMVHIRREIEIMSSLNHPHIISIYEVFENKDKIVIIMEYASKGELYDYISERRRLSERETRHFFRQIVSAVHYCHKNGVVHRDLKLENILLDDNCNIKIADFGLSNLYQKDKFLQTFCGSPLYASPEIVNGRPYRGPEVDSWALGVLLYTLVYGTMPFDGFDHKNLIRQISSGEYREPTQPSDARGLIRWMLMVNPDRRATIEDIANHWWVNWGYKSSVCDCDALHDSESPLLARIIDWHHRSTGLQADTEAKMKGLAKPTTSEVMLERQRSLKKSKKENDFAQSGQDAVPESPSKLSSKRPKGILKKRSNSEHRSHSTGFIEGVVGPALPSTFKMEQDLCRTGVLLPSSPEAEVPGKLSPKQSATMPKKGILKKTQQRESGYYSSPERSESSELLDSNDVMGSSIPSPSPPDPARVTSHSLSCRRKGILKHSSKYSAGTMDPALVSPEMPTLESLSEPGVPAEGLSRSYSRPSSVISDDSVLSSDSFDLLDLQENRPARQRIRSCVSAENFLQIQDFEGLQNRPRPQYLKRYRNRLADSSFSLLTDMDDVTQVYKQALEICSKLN

SMILES: O=C1NC(=O)C(c2cn(CCCO)c3ncccc23)=C1c1cnccn1
residual activity (RAF1 (human)): 100%
residual activity (FGFR4 (human)): 91.5%
residual activity (NUAK1 (human)): 59.4%
residual activity (EPHA1 (human)): 73.9%
residual activity (WEE1 (human)): 96.2%
residual activity (EPHB3 (human)): 86.6%
residual activity (ITK (human)): 84.7%
residual activity (MAP3K5 (human)): 88.9%
residual activity (CSF1R (human)): 98.4%
residual activity (NEK7 (human)): 95.4%
residual activity (MUSK (human)): 67.1%
residual activity (PNCK (human)): 94.9%
residual activity (MAP4K4 (human)): 36.4%
residual activity (CAMK2A (human)): 108%
residual activity (BTK (human)): 93.7%
residual activity (CSNK1G1 (human)): 101%
residual activity (STK33 (human)): 82.8%
residual activity (PRKACA (human)): 87.7%
residual activity (PBK (human)): 94.9%
residual activity (MERTK (human)): 78.7%
residual activity (CSNK1G2 (human)): 66%
residual activity (EPHA8 (human)): 86.9%
residual activity (FGFR3 (human)): 78.7%
residual activity (OXSR1 (human)): 101%
residual activity (DYRK1A (human)): 108%
residual activity (HIPK1 (human)): 84.2%
residual activity (MINK1 (human)): 84.8%
residual activity (PIM1 (human)): 43.9%
residual activity (PLK3 (human)): 91.1%
residual activity (SRMS (human)): 95.9%
residual activity (STK25 (human)): 78.9%
residual activity (DMPK (human)): 99.6%
residual activity (DYRK3 (human)): 79.6%
residual activity (NEK3 (human)): 97.5%
residual activity (CAMK2G (human)): 90.6%
residual activity (PIM3 (human)): 16.7%
residual activity (GSK3B (human)): 25.2%
residual activity (JAK3 JH1 JH2 (human)): 134%
residual activity (MYLK2 (human)): 81.1%
residual activity (ULK1 (human)): 102%
residual activity (MARK3 (human)): 87.8%

SMILES: CCn1cnc2c(Nc3cccc(Cl)c3)nc(N[C@@H]3CCCC[C@@H]3N)nc21
residual activity (RAF1 (human)): 92.8%
residual activity (FGFR4 (human)): 97.5%
residual activity (NUAK1 (human)): 52.4%
residual activity (EPHA1 (human)): 79.6%
residual activity (WEE1 (human)): 110%
residual activity (EPHB3 (human)): 92.6%
residual activity (ITK (human)): 105%
residual activity (MAP3K5 (human)): 103%
residual activity (CSF1R (human)): 94.2%
residual activity (NEK7 (human)): 86%
residual activity (MUSK (human)): 79.8%
residual activity (PNCK (human)): 98.5%
residual activity (MAP4K4 (human)): 72.5%
residual activity (CAMK2A (human)): 96.5%
residual activity (BTK (human)): 82.5%
residual activity (CSNK1G1 (human)): 56.8%
residual activity (STK33 (human)): 88.9%
residual activity (PRKACA (human)): 102%
residual activity (PBK (human)): 105%
residual activity (MERTK (human)): 76.2%
residual activity (CSNK1G2 (human)): 69.5%
residual activity (EPHA8 (human)): 93%
residual activity (FGFR3 (human)): 90.4%
residual activity (OXSR1 (human)): 92.3%
residual activity (DYRK1A (human)): 100%
residual activity (HIPK1 (human)): 97.5%
residual activity (MINK1 (human)): 95.2%
residual activity (PIM1 (human)): 83.8%
residual activity (PLK3 (human)): 90.1%
residual activity (SRMS (human)): 85.9%
residual activity (STK25 (human)): 101%
residual activity (DMPK (human)): 99.7%
residual activity (DYRK3 (human)): 83.7%
residual activity (NEK3 (human)): 100%
residual activity (CAMK2G (human)): 104%
residual activity (PIM3 (human)): 34.7%
residual activity (GSK3B (human)): 104%
residual activity (JAK3 JH1 JH2 (human)): 99.6%
residual activity (MYLK2 (human)): 95.2%
residual activity (ULK1 (human)): 74.5%
residual activity (MARK3 (human)): 98.7%

residual activity (RAF1 (human)): 100%
residual activity (FGFR4 (human)): 82.6%
residual activity (NUAK1 (human)): 49.4%
residual activity (EPHA1 (human)): 83.2%
residual activity (WEE1 (human)): 93.7%
residual activity (EPHB3 (human)): 94.2%
residual activity (ITK (human)): 76.8%
residual activity (MAP3K5 (human)): 95.8%
residual activity (CSF1R (human)): 84%
residual activity (NEK7 (human)): 91.9%
residual activity (MUSK (human)): 68.5%
residual activity (PNCK (human)): 96.3%
residual activity (MAP4K4 (human)): 30.2%
residual activity (CAMK2A (human)): 89.2%
residual activity (BTK (human)): 27.3%
residual activity (CSNK1G1 (human)): 93.9%
residual activity (STK33 (human)): 70.3%
residual activity (PRKACA (human)): 109%
residual activity (PBK (human)): 76.8%
residual activity (MERTK (human)): 77%
residual activity (CSNK1G2 (human)): 89.7%
residual activity (EPHA8 (human)): 96.3%
residual activity (FGFR3 (human)): 46.5%
residual activity (OXSR1 (human)): 112%
residual activity (DYRK1A (human)): 111%
residual activity (HIPK1 (human)): 83%
residual activity (MINK1 (human)): 76.1%
residual activity (PIM1 (human)): 79.8%
residual activity (PLK3 (human)): 96.2%
residual activity (SRMS (human)): 98%
residual activity (STK25 (human)): 80.9%
residual activity (DMPK (human)): 95.4%
residual activity (DYRK3 (human)): 91.3%
residual activity (NEK3 (human)): 130%
residual activity (CAMK2G (human)): 70.6%
residual activity (PIM3 (human)): 54.2%
residual activity (GSK3B (human)): 14.3%
residual activity (JAK3 JH1 JH2 (human)): 107%
residual activity (MYLK2 (human)): 55%
residual activity (ULK1 (human)): 95.6%
residual activity (MARK3 (human)): 85.4%
SMILES: CC(=O)O/N=C1\C(=C2\C(=O)Nc3cc(Br)ccc32)Nc2ccccc21
